{"source": "patent US5707815A", "about": "“Mammalian monocyte chemoattractant protein receptors and assays using them” (Regents of the University of California, priority 1995, dated 1998)", "key": {"MIP-1α/RANTES receptor": {"tested_on": "MIP-1α/RANTES receptor", "experiment": "Ca45 efflux assay in Xenopus oocytes, MIP-1α/RANTES receptor examined in parallel", "type": "cell-based"}, "MM6 cells": {"tested_on": "MM6 cells", "experiment": "MCP-1 induced calcium flux in MM6 cells (calcium efflux assay)", "type": "cell-based, human", "experimental": "(§1) Because monocytes are difficult to isolate in usable quantity and express less than 2000 high affinity MCP-1 binding sites per cell, a cultured cell line that responded well to MCP-1 had to be identified. Using the calcium effiux assay as described in Vu, Cell 64:1057-68(1991), MCP-1 induced calcium fluxes in various cell lines were measured. […] In contrast, a dose-dependent calcium flux was detected in MM6 cells, with half maximal stimulation at 4nM MCP-1."}, "[1]": {"tested_on": "untransfected or pcDNA3 transfected 293 cell controls", "experiment": "cAMP formation in untransfected or pcDNA3 transfected 293 cell controls", "type": "cell-based, human", "conditions": "cells without receptor"}, "monocyte": {"tested_on": "monocyte", "conditions": "Yoshimura, J. Immunol. 145:292-97 (1990); cited from earlier work"}, "MCP-1RB receptor": {"tested_on": "MCP-1RB receptor", "type": "cell-based, human", "experimental": "To investigate inhibition of adenylyl cyclase activity, HEK-293 cells stably-transfected with the MCP-1RB receptor and the MIP-1α/RANTES receptor were grown until confluent in 24-well tissue culture dishes and labeled overnight with 2 μCi/ml of [^3 H]adenine (25-30 Ci/mmol) (New England Nuclear, Boston, Mass.) in MEM-EBSS supplemented with 10% FCS. The next day, the cells were washed by incubation at room temperature with 0.5 ml of serum-free MEM-EBSS media supplemented with 10 mM HEPES, 1 mg/ml BSA, and 1 mM IBMX (3-isobutyl-1-methylxanthine) for 5 min. […] The incubation was terminated by replacement of the media with 1 ml of ice-cold 5% TCA (trichloroacetic acid), 1 mM cAMP, and 1 mM ATP (Sigma). Following incubation at 4° C. for 30 min, the labeled [^3 H]ATP and [3H]cAMP pools were separated and quantitated by chromatography on Dowex 50W (200-400 mesh, hydrogen form, from Sigma) and neutral alumina columns (also from Sigma), as described in Hung, J. Biol. Chem. 267:20831-34 (1992) and Wong, Nature 351: 63-65 (1991). The 1 ml acid supernatant was loaded onto a 1-ml Dowex 50W column and the ATP pool eluted with 3 ml of H2 O. The Dowex 50W columns were then placed over 1-ml alumina columns, and 10 ml of H2 O was added to the Dowex resin and the eluant allowed to drop directly onto the neutral alumina. The cAMP pool was then eluted directly from the alumina with 5 ml of 0.1M imidazole/0.01mM sodium azide. The [^3 H]ATP and [^3 H]cAMP fractions were counted by liquid scintillation spectroscopy. The cAMP pool for each sample was normalized to its own ATP pool and expressed as a ratio by the equation (cAMP cpms/ATP cpms)×100. In each experiment full dose-response curves were generated and expressed as a percent of the forskolin control.\nInhibition of MCP-1RB receptor activation by bordetella pertussis toxin was investigated. Pertussis toxin (List Biological Labs, Inc., Campbell, Calif.) was dissolved in 0.01M sodium phosphate, pH 7.0, 0.05M sodium chloride and diluted into normal serum containing media at final concentrations of 0.1 ng/ml to 100 ng/ml, and incubated with cells overnight (14-16 h) at 37° C. The conditions of the Pertussis toxin treatment of the 293 cells were identical for calcium fluorimetric and adenylyl cyclase experiments. In the adenylyl cyclase experiments, the Pertussis toxin was added at the same time as [^3 H]adenine.\nDose response curves generated in the calcium fluorimetric and adenylyl cyclase inhibition assays were fit by a nonlinear least squares program to the logistic equation:\nEffect=max effect/[1+(EC50 /(agonist)^n)]\nwhere n and EC50 represent the Hill coefficient and the agonist concentration that elicited a half-maximal response, respectively, and were derived from the fitted curve. Curve fitting was done with the computer program \"Prism\" (by Graph Pad, San Diego, Calif.). Results represent the mean ±SE. The 95% confidence intervals (CI) of the EC50 and IC50 values, when given, were calculated from the log EC50 and IC50 values, respectively."}, "[2]": {"tested_on": "human erythroleukemia (HEL) cells", "experiment": "MCP-1 induced calcium flux in HEL cells", "type": "cell-based", "experimental": "as §1"}, "MCP-1 receptor": {"tested_on": "MCP-1 receptor", "experiment": "Total inositol phosphate accumulation in MCP-1 receptor transfected 293 cells", "type": "cell-based, human", "conditions": "293 cells stably expressing recombinant MCP-1 receptor", "experimental": "Inositol (1,4,5)-triphosphate (IP3) mobilizes intracellular calcium in response to activation of a wide spectrum of receptors, including many seven-transmembrane-domain receptors. Hung, J. Ceil. Biol. 116:827-32 (1992); Putney, Trends Endocrinol. Metab. 5:256-60 (1994). To investigate this mobilization, total inositol phosphate accumulation was determined as described in Hung, J. Cell Biol. 116:827-32 (1992). HEK-293 cells were grown until confluent in 24-well tissue culture dishes and labeled overnight with 2 uCi/ml [^3 H]myo-inositol (23 Ci/mmol) (New England Nuclear, Boston, Mass.) in inositol-free MEM-EBSS supplemented with 10% dialyzed FCS. Following labeling, the media were removed and the cells were incubated at room temperature for 5-10 min in 0.5 ml of serum-free MEM-EBSS media supplemented with 10 mM HEPES, 1 mg/ml BSA, and 10 mM LiCl. […] The incubation was terminated by removal of the incubation media and addition of 1 ml of ice-cold 20 mM formic acid. Plates were incubated at 4° C. for 30 min before the supernatants were applied to 1-ml Dowex AG1-X8 (100-200 mesh, formate form, from Sigma) chromatography columns. Columns were washed with 8 ml of water followed by 5 ml of 40 mM sodium formate. Total [^3 H]inositol phosphates were eluted with 5 ml of 2M ammonium formate/0.1M formic acid and quantitated by liquid scintillation spectroscopy. […]"}}, "note": "pEC50: −log10 of the molar value.", "data": [{"substance": "monocyte chemoattractant protein-1 [MCP-1]", "values": [{"measurement": "receptor signaling in response to chemokine", "setting": "MIP-1α/RANTES receptor", "value": "not to MCP-1"}, {"measurement": "pEC50", "setting": "MM6 cells; dose-dependent calcium flux, read-out: half maximal stimulation of calcium flux", "value": 8.40}, {"measurement": "effect of prior exposure to the chemokine on the calcium response to the other chemokine", "setting": "MM6 cells; label = chemokine given first, MCP-1 versus RANTES (or MIP-1α)", "value": "partially blocked"}, {"measurement": "effect on cAMP formation", "setting": "[1]", "value": "neither stimulated nor inhibited"}, {"measurement": "EC50 for monocyte chemotaxis", "setting": "monocyte", "value": "subnanomolar"}, {"measurement": "selectivity for the MCP-1 receptor", "setting": "MCP-1RB receptor", "value": "at least 9000 fold"}, {"measurement": "block of forskolin-induced increase of cAMP", "setting": "MCP-1RB receptor; co-addition with forskolin", "value": 78, "unit": "%"}, {"measurement": "reduction of basal cAMP accumulation", "setting": "MCP-1RB receptor; no forskolin, p<0.01", "value": 55, "unit": "%"}, {"measurement": "MCP-1 induced calcium flux", "setting": "[2]", "value": "No calcium flux was detected"}, {"measurement": "hydrolysis of PI (phosphatidylinositol)", "setting": "MCP-1 receptor", "value": "little, if any"}]}]}
